Test results: the NIST ThermoML archive (doi:10.1016/j.tca.2012.07.004)
Numbers after ± are expanded uncertainties.

Test: xn = mol fraction of the nth substance listed
Conditions: 101 kPa, Liquid; for mass density: Vibrating tube method; for viscosity: Vibrating wire viscometry; for speed of sound: ultrasonic interferometer

C[NH+](C)C.O=P([O-])(O)O [trimethylammonium dihydrogen phosphate] + CN1CCCC1=O
Conditions	mass density [kg/m3]	speed of sound [m/s]	viscosity [mPa·s]
298.15 K, x1 = 0.0201	1041.43 ± 0.79	1573 ± 20	2.89 ± 0.21
298.15 K, x1 = 0.0391	1053.47 ± 0.68	1586 ± 20	6.08 ± 0.39
298.15 K, x1 = 0.1028	1089.8 ± 0.69	1610 ± 20	13.47 ± 0.82
298.15 K, x1 = 0.1462	1113.92 ± 0.69	1626 ± 20	18.44 ± 1.1
298.15 K, x1 = 0.211	1148.18 ± 0.65	1653 ± 20	25.04 ± 1.5
298.15 K, x1 = 0.3267	1196.88 ± 0.66	1680 ± 20	30.52 ± 1.8
298.15 K, x1 = 0.3746	1213.72 ± 0.64	1686 ± 20	31.03 ± 1.9
298.15 K, x1 = 0.4469	1236.58 ± 0.63	1695 ± 20	31.16 ± 1.9
298.15 K, x1 = 0.5751	1270.11 ± 0.64	1695 ± 20	27.7 ± 1.7
298.15 K, x1 = 0.7093	1297.11 ± 0.66	1691 ± 20	21.12 ± 1.3
298.15 K, x1 = 0.852	1325.36 ± 0.69	1673 ± 20	12.99 ± 0.79
298.15 K, x1 = 0.9413	1342.23 ± 0.7	1665 ± 20	8.68 ± 0.53
298.15 K, x1 = 0.9719	1348.52 ± 0.71	1665 ± 20	7.48 ± 0.45
298.15 K, x1 = 1	1353.61 ± 0.69	1672 ± 20	7.64 ± 0.46
303.15 K, x1 = 0.0201	1034.74 ± 0.65	1570 ± 20	2.13 ± 0.14
303.15 K, x1 = 0.0391	1045.35 ± 0.67	1582 ± 20	3.98 ± 0.27
303.15 K, x1 = 0.1028	1081.42 ± 0.68	1604 ± 20	11.55 ± 0.71
303.15 K, x1 = 0.1462	1104.62 ± 0.66	1624 ± 20	15.87 ± 0.96
303.15 K, x1 = 0.211	1136.57 ± 0.63	1644 ± 20	21.79 ± 1.3
303.15 K, x1 = 0.3267	1183.7 ± 0.65	1671 ± 20	26.64 ± 1.6
303.15 K, x1 = 0.3746	1200.24 ± 0.62	1679 ± 20	27.3 ± 1.6
303.15 K, x1 = 0.4469	1223.4 ± 0.62	1692 ± 20	26.98 ± 1.6
303.15 K, x1 = 0.5751	1257.32 ± 0.64	1692 ± 20	24.1 ± 1.4
303.15 K, x1 = 0.7093	1286.38 ± 0.65	1690 ± 20	18.07 ± 1.1
303.15 K, x1 = 0.852	1317.91 ± 0.69	1675 ± 20	10.86 ± 0.66
303.15 K, x1 = 0.9413	1337.6 ± 0.7	1663 ± 20	7.93 ± 0.48
303.15 K, x1 = 0.9719	1344.48 ± 0.71	1662 ± 20	6.79 ± 0.41
303.15 K, x1 = 1	1350.62 ± 0.68	1660 ± 20	6.46 ± 0.39
308.15 K, x1 = 0.0201	1028.37 ± 0.59	1550 ± 20	1.54 ± 0.1
308.15 K, x1 = 0.0391	1038.12 ± 0.65	1564 ± 20	2.3 ± 0.16
308.15 K, x1 = 0.1028	1073.87 ± 0.66	1587 ± 20	8.69 ± 0.53
308.15 K, x1 = 0.1462	1095.84 ± 0.64	1606 ± 20	11.98 ± 0.73
308.15 K, x1 = 0.211	1126.55 ± 0.61	1633 ± 20	16.24 ± 0.98
308.15 K, x1 = 0.3267	1173.1 ± 0.63	1663 ± 20	20.11 ± 1.2
308.15 K, x1 = 0.3746	1189.72 ± 0.61	1673 ± 20	20.71 ± 1.2
308.15 K, x1 = 0.4469	1213.08 ± 0.61	1688 ± 20	20.64 ± 1.2
308.15 K, x1 = 0.5751	1248.1 ± 0.63	1693 ± 20	18.68 ± 1.1
308.15 K, x1 = 0.7093	1279.47 ± 0.65	1691 ± 20	14.21 ± 0.86
308.15 K, x1 = 0.852	1311.88 ± 0.68	1685 ± 20	8.83 ± 0.53
308.15 K, x1 = 0.9413	1332.36 ± 0.7	1675 ± 20	7.25 ± 0.44
308.15 K, x1 = 0.9719	1339.9 ± 0.72	1673 ± 20	6.6 ± 0.4
308.15 K, x1 = 1	1347.59 ± 0.68	1661 ± 20	5.61 ± 0.34
313.15 K, x1 = 0.0201	1023.28 ± 0.55	1544 ± 20	1.47 ± 0.1
313.15 K, x1 = 0.0391	1031.97 ± 0.61	1560 ± 20	2.82 ± 0.18
313.15 K, x1 = 0.1028	1065.17 ± 0.63	1588 ± 20	6.92 ± 0.42
313.15 K, x1 = 0.1462	1086.37 ± 0.62	1608 ± 20	9.58 ± 0.58
313.15 K, x1 = 0.211	1116.83 ± 0.61	1637 ± 20	12.74 ± 0.77
313.15 K, x1 = 0.3267	1161.79 ± 0.62	1672 ± 20	16.43 ± 0.99
313.15 K, x1 = 0.3746	1178.19 ± 0.6	1684 ± 20	16.55 ± 1
313.15 K, x1 = 0.4469	1201.94 ± 0.61	1702 ± 20	16.53 ± 1
313.15 K, x1 = 0.5751	1237.68 ± 0.63	1708 ± 20	15.2 ± 0.92
313.15 K, x1 = 0.7093	1270.77 ± 0.65	1704 ± 20	11.9 ± 0.72
313.15 K, x1 = 0.852	1305.61 ± 0.68	1697 ± 20	7.17 ± 0.43
313.15 K, x1 = 0.9413	1327.25 ± 0.7	1684 ± 20	6.73 ± 0.41
313.15 K, x1 = 0.9719	1335.1 ± 0.73	1682 ± 20	5.76 ± 0.35
313.15 K, x1 = 1	1344.53 ± 0.68	1664 ± 20	5.07 ± 0.31
